Activity calls are given as the source filed them. The rule behind the calls is not given here.
Biological target: Influenza A virus M2 proton channel (A/TW/4845/1999 H1N1)
Assay: M2 proton channel binding, NMR based, influenza A virus H1N1 strain (AID 1549)
Settings: NMR binding screen, M2 protein

Structure (SMILES) | Kd
O=c1c2c(nc3nc(COc4ccccc4)[nH]n13)CCC2 | > 4 mM (inactive)
O=C(O)c1ccc(CN2CCOCC2)cc1 | > 4 mM (inactive)
Nc1cc(C(=O)N2CCCC2)cc(C(=O)N2CCCC2)c1 | > 4 mM (inactive)
COc1cc2nc[nH]c(=O)c2cc1OC | > 4 mM (inactive)
Cn1nc(C(=O)Nc2cccnc2)c2ccccc2c1=O | > 4 mM (inactive)
CNc1ccccc1C(=O)O | > 4 mM (inactive)
CN1CN/C(=N\[N+](=O)[O-])N(c2ccccc2)C1 | > 4 mM (inactive)
O=C(NCc1ccccc1)c1ccc[n+]([O-])c1 | > 4 mM (inactive)
O=C(O)c1cccnc1Oc1ccccc1 | > 4 mM (inactive)
CC1CCC(N2CCN(c3ncccn3)CC2)CC1 (stereo unspecified) | > 4 mM (inactive)
Nn1cnn2c(SCc3ccccc3)nnc12 | > 4 mM (inactive)
NS(=O)(=O)c1ccc(N2CCCC2=O)cc1 | > 4 mM (inactive)
CC1(C)NCCN2C(=O)CSC21 (stereo unspecified) | > 4 mM (inactive)
C=C1CCC(=O)C(C)CCC2C1CC2(C)C (stereo unspecified) | > 4 mM (inactive)
COc1ccc2c(c1)OC[C@@H](Cc1ccc(OC)c(OC)c1)[C@@H]2O | > 4 mM (inactive)
Cc1nc(CC(=O)O)c(-c2ccccc2)s1 | > 4 mM (inactive)
CC(C)=CCc1c2c(c(O)c3c(=O)c(O)c(-c4ccccc4)oc13)C=CC(C)(C)O2 | > 4 mM (inactive)
CC(=O)Oc1ccc2c(c1)c(C(C)=O)c(C)n2C | > 4 mM (inactive)
COc1ccc([C@@H]2CC(=O)c3c(O)cc(O[C@@H]4O[C@H](CO[C@H]5O[C@@H](C)[C@H](O)[C@@H](O)[C@H]5O)[C@@H](O)[C@H](O)[C@H]4O)cc3O2)cc1O | > 4 mM (inactive)
O=C(O)CNC(=O)c1ccccc1Cl | > 4 mM (inactive)
O=C(NCCCO)c1ccncc1 | > 4 mM (inactive)
CC(C)(C)c1cc(N)n[nH]1 | > 4 mM (inactive)
CSc1ccccc1C(=O)N1CCOCC1 | > 4 mM (inactive)
CCNC(=S)Nc1c(C)n(C)n(-c2ccccc2)c1=O | > 4 mM (inactive)

Structure (SMILES) | Kd
c1cnc(N2CCSCC2)nc1 | > 4 mM (inactive)
CC(=O)O[C@H]1CC[C@@]2(C)C(=CCC3C2CC[C@@]2(C)C3CC[C@@H]2C(C)CCCC(C)C)C1 (stereo partly specified) | > 4 mM (inactive)
O=c1n(-c2ccccc2)c(=O)n2n1CCCC2 | > 4 mM (inactive)
O=C(O)c1cnc2sc3ccccc3n2c1=O | > 4 mM (inactive)
CCOC(=O)c1c(C)nc2ncccn12 | > 4 mM (inactive)
CS(=O)(=O)Cc1ccccc1 | > 4 mM (inactive)
CN1CCN(CC(O)c2ccccc2)CC1 (stereo unspecified) | > 4 mM (inactive)
O=C(Nc1cccnc1)c1c(F)c(F)c(F)c(F)c1F | > 4 mM (inactive)
NCc1oc(-c2ccccc2)cc1C(=O)O | > 4 mM (inactive)
O=c1cnnc(SCCc2ccccc2)[nH]1 | > 4 mM (inactive)
O=C(NN1C(=O)c2ccccc2C1=O)c1cccs1 | > 4 mM (inactive)
Cc1ccccc1NC(=O)c1ccccc1 | > 4 mM (inactive)
Nc1ccc(O)cn1 | > 4 mM (inactive)
Cc1c(C(=O)OC(C)C)[nH]c2c1C(=O)CCC2 | > 4 mM (inactive)
O=C(O)CCS(=O)(=O)c1ccccc1 | > 4 mM (inactive)
O=C1CS/C(=N/N=C/c2cccs2)N1 | > 4 mM (inactive)
CN1CCN(c2cc(=O)n(C)c(=O)[nH]2)CC1 | > 4 mM (inactive)
CCOC(=O)c1c(C)cc(O)c(C)c1O | > 4 mM (inactive)
COCC(=O)Nc1cccc2ccccc12 | > 4 mM (inactive)
O=C(Nc1ccc2c(c1)OCCO2)c1ccncc1 | > 4 mM (inactive)
NC(=O)c1cn(-c2ccccc2)nc1-c1cccnc1 | > 4 mM (inactive)
CC1(C)O[C@H]2[C@H](O)C[C@](O)(C(N)=O)C[C@H]2O1 | > 4 mM (inactive)
Cc1cc2nc3c(=O)[nH]c(=O)nc-3n(CC(O)C(O)C(O)CO)c2cc1C (stereo unspecified) | > 4 mM (inactive)
CCCn1cnc2sc(C(N)=O)c(C)c2c1=O | > 4 mM (inactive)

Structure (SMILES) | Kd
Cc1occc1C(=O)Nc1ccc2c(c1)CCC2 | > 4 mM (inactive)
CC(=O)Oc1ccc(-c2cc(=O)c3c(OC(C)=O)cc(OC(C)=O)cc3o2)cc1 | > 4 mM (inactive)
NC(=O)NC1C=CS(=O)(=O)C1 (stereo unspecified) | > 4 mM (inactive)
O=C(Nc1ccc2c(c1)CCC2)c1cnccn1 | > 4 mM (inactive)
COc1cc2cc3c4cc(OC)c(OC)cc4cc[n+]3c(C)c2cc1OC | > 4 mM (inactive)
Fc1ccc(N2CCNCC2)cc1 | > 4 mM (inactive)
NCc1cccc2c1OCCCO2 | > 4 mM (inactive)
CC1(C)Cc2nc(N3CCOCC3)c(C#N)cc2CO1 | > 4 mM (inactive)
COc1ccccc1-c1cn[nH]c(=S)n1 | > 4 mM (inactive)
CCC(CO)NC(=O)c1snnc1C (stereo unspecified) | > 4 mM (inactive)
Nc1cccc(F)c1-c1ncon1 | > 4 mM (inactive)
CCN1CCc2c(sc(N)c2C#N)C1 | > 4 mM (inactive)
Cc1ccc(CCC(N)=O)o1 | > 4 mM (inactive)
O=C(c1ccco1)N1C(=O)c2cccc3cccc1c23 | > 4 mM (inactive)
CCCCCC/C=C\CCCCCCCc1cccc(O)c1C(=O)O | > 4 mM (inactive)
CC1=CCCC2C1(C)CCC(C)C2(C)CC/C(C)=C/C[n+]1cn(C)c2c(N)ncnc21 (stereo unspecified) | > 4 mM (inactive)
O=C(O)c1ccc2c(c1)OCCO2 | > 4 mM (inactive)
S=C(c1ccc2c(c1)OCO2)N1CCCC1 | > 4 mM (inactive)
Cc1nn(C)c2sc(CO)cc12 | > 4 mM (inactive)
NC12CC3CC(C1)CC(CC(=O)O)(C3)C2 | > 4 mM (inactive)
CCNC(CC(=O)Nc1cccc([N+](=O)[O-])c1)C(=O)O (stereo unspecified) | > 4 mM (inactive)
OCC1Cc2ccccc2N1 (stereo unspecified) | > 4 mM (inactive)
COc1c2ccoc2cc2oc(C)cc(=O)c12 | > 4 mM (inactive)
C[C@H]1[C@H](C)CC[C@]2(C(=O)O)CC[C@]3(C)C(=CCC4[C@@]5(C)C[C@@H](O)[C@H](O)[C@@](C)(CO)C5[C@H](O)C[C@]43C)[C@H]12 (stereo partly specified) | > 4 mM (inactive)

Structure (SMILES) | Kd
[O-][n+]1onc2c1CCc1c-2nn(-c2ccccc2)[n+]1[O-] | > 4 mM (inactive)
Cc1c(CCO)c(=O)n2c([nH]c3ccccc32)c1C#N | > 4 mM (inactive)
CC(=O)Nc1ccc(NC(C)=O)cc1 | > 4 mM (inactive)
CCOC(=O)N1CCCC1c1cccnc1 (stereo unspecified) | > 4 mM (inactive)
O=c1[nH]cnc2c1nnn2Cc1ccccc1 | > 4 mM (inactive)
Nc1cccc(OC(F)(F)F)c1 | > 4 mM (inactive)
O=c1c(-c2ccccc2)coc2cc(O)cc(O)c12 | > 4 mM (inactive)
C=C1CCC2C(CC2(C)C)C(=O)CCC1O (stereo unspecified) | > 4 mM (inactive)
CC1=C(C(=O)Nc2ccccc2)SCCO1 | > 4 mM (inactive)
O=C(Nc1ccc(N2CCOCC2)cc1)c1cnsn1 | > 4 mM (inactive)
Cc1ccc(C(=O)Nc2c[nH]c(=O)[nH]c2=O)cc1 | > 4 mM (inactive)
C=C1C2CC[C@@]3(C)[C@H](c4ccoc4)OC(=O)C[C@]13O[C@H]1CC(O)C(C)(C)C(CC(=O)OC)[C@@]21C (stereo partly specified) | > 4 mM (inactive)
c1ccc(-c2nnc3sc(-c4ccncc4)nn23)cc1 | > 4 mM (inactive)
Cc1nc2ccccc2c(=O)n1CCCn1ccnc1 | > 4 mM (inactive)
O=C1CCC(=O)N1CNc1ccccc1 | > 4 mM (inactive)
O=C1NC(=Nc2ccc(O)cc2)S/C1=C/c1ccco1 | > 4 mM (inactive)
COc1cccc(-c2csc(NC(C)=O)n2)c1 | > 4 mM (inactive)
c1ccc2[nH]c(SCc3cscn3)nc2c1 | > 4 mM (inactive)
CN1C2CC(OC(=O)[C@H](CO)c3ccccc3)C[C@H]1[C@H]1OC21 (stereo partly specified) | > 4 mM (inactive)
NCc1n[nH]c(=O)c2ccccc12 | > 4 mM (inactive)
COC(=O)c1cn(C(=O)OC)c2ccccc12 | > 4 mM (inactive)
COC(=O)[C@@H]1OC(=O)C2OC23[C@@]1(C)CCC1[C@@]2(C)CCC(=O)C(C)(C)C2C[C@@H](OC(C)=O)[C@]13C (stereo partly specified) | > 4 mM (inactive)
Nc1ccc(C(=O)NCC2CCCO2)cc1 (stereo unspecified) | > 4 mM (inactive)
CCN1CC2(C)CC[C@H](OC)[C@]34C2[C@H](O)C2(OCO[C@@]25C[C@H](OC)[C@H]2C[C@]3(O)C5[C@H]2O)C14 | > 4 mM (inactive)

Structure (SMILES) | Kd
CON(C)C(=O)Nc1ccc(Cl)cc1 | > 4 mM (inactive)
Cc1nc2ccc(NC(=O)N3CCSCC3)cc2s1 | > 4 mM (inactive)
O=C(Nn1cnnc1)c1ccccc1Cl | > 4 mM (inactive)
CCC(C)C(=O)OC1[C@@H]2CC3=C4CC(=O)O[C@@H](c5ccoc5)[C@]4(C)CCC3C(C)(C2=O)[C@@H](CC(=O)OC)C1(C)C (stereo partly specified) | > 4 mM (inactive)
O=S1(=O)C=CC(Nc2ccccc2)C1 (stereo unspecified) | > 4 mM (inactive)
CCNC(=S)N1CCC(C(N)=O)CC1 | > 4 mM (inactive)
O=C(NCCO)c1ccccc1I | > 4 mM (inactive)
CC(C)=NNC(=O)C(=O)Nc1ccc(F)cc1 | > 4 mM (inactive)
O=C(O)c1cncc(-c2ccccc2)c1 | > 4 mM (inactive)
CC(C)C(=O)NC(=S)N1CCOCC1 | > 4 mM (inactive)
O=[N+]([O-])c1cccc(CN2CCC(O)CC2)c1 | > 4 mM (inactive)
Cc1onc(-c2ccccc2)c1CN | > 4 mM (inactive)
Cc1nnc(Nc2cccnc2)[nH]c1=O | > 4 mM (inactive)
O=c1[nH]cc(NC(=S)N2CCOCC2)c(=O)[nH]1 | > 4 mM (inactive)
O=C(O)c1ccc2occc2c1 | > 4 mM (inactive)
Cc1cc(=O)n2[nH]c(C)cc2n1 | > 4 mM (inactive)
COC(=O)C[C@@H]1C2(C)C(=O)[C@@H](CC3=C4CC(O)O[C@@H](c5ccoc5)[C@]4(C)CCC32)[C@H](O)C1(C)C (stereo partly specified) | > 4 mM (inactive)
NCc1ccc2sccc2c1 | > 4 mM (inactive)
CC(=O)N1CCc2cc(NC(=O)c3ccc(C)cc3)ccc21 | > 4 mM (inactive)
CCCCCC(=O)Cc1cc(O)cc(O)c1C(=O)Oc1cc(CC(=O)CCCCC)c(C(=O)O)c(OC)c1 | > 4 mM (inactive)
